Where two headings read alike, the source gives them in different places.
Tests used:
[1] = tested on: VZV in MeWo or MRC5 cells; assay: Viral qPCR assay VZV (V0/V1, V2/V3), EC50; format: cell-based
Procedure: (§1) Viral qPCR Assays (V0/V1)
(§2) MRC5 cells, Vero cells, and MeWo cells were obtained from ATCC and were maintained at 37° C./5% CO2/90% relative humidity in Minimal Essential Medium with 10% fetal bovine serum, […] L-glutamine, 100 units/ml penicillin and 100 ug/ml streptomycin. Assay plates were prepared by dispensing compounds dissolved in DMSO into wells of 384 well collagen-coated plates using an ECHO acoustic dispenser. Each compound was tested in a 10-point, serial 3-fold dilution. Controls included uninfected cells and infected cells treated only with DMSO. Assays were initiated by mixing selected cells, in suspension, with virus, and dispensing 50 μl/well infected cells to pre-plated compounds. Plates were incubated at 37° C./5% CO2/90% relative humidity for ˜72 hrs to permit genomic replication, and infected cells were lysed by the addition of an equal volume of lysis buffer (10 mM Tris-HCl, pH8, 50 mM KCl, 2 mM MgCl2, 0.45% NP-40, 0.45% Tween-20, and 100 μg/ml proteinase K). An aliquot of the lysate was transferred to a 384-well PCR plate and incubated at 56° C. for 1 hour and then at 95° C. for 10 min. Levels of a viral gene and of the cellular control, PPIA (Thermo Fisher Assay ID=Hs04194521_s1), were measured in separate 10 μL qPCR assays using TaqMan® Gene Expression Master Mix (Applied Biosystems), and an 7900HT Fast Real-Time PCR System with 384-Well Block Module. 7-point, serial 10-fold dilutions of a plasmid standard were run on each plate to generate a standard curve, and genome copies numbers were calculated by plotting experimental Ct onto linear regression of the standard curve. Viral genome copy numbers were normalized by cellular control copy number, and compound effects were normalized to the window defined by the controls. Calculated % effects were fit using a 4-parameter algorithm, and EC50 was reported.
(§3) Viral qPCR Assays (V2/V3)
as §2, with “gene” for “gene and of the cellular control, PPIA (Thermo Fisher Assay ID=Hs04194521_s1),”, “in” for “in separate”, “Compound effects on viral” for “Viral”, “number” for “numbers were normalized by cellular control copy number, and compound effects”, “reported. • HCMV: Strain AD169 Street was assayed in MRC-5 cells and was used at 0.05-0.1 pfu/cell. The assays were performed in either growth media or in the same media with 50% fetal bovine serum. Primer-probe set was Thermo Fisher Assay ID=AIFATFK. • VZV: Strain Street was maintained as an infected cell stock in MRC-5 cells. It was assayed in MeWo or MRC5 cells and was used at 0.04-0.1 pfu/cell. […]” for “reported.”

[2] = tested on: HSV-1 Strain F in Vero or MRC5 cells; assay: Viral qPCR assay HSV-1 (V0/V1, V2/V3), EC50; format: cell-based; details: Human alphaherpesvirus 1, Vero, read-out: HSV1 Cell (EC50) VERO 10%
Procedure: as §1, §2, §3
as §2, with “gene” for “gene and of the cellular control, PPIA (Thermo Fisher Assay ID=Hs04194521_s1),”, “in” for “in separate”, “Compound effects on viral” for “Viral”, “number” for “numbers were normalized by cellular control copy number, and compound effects”, “reported. • HCMV: Strain AD169 Street was assayed in MRC-5 cells and was used at 0.05-0.1 pfu/cell. The assays were performed in either growth media or in the same media with 50% fetal bovine serum. Primer-probe set was Thermo Fisher Assay ID=AIFATFK. • VZV: Strain Street was maintained as an infected cell stock in MRC-5 cells. It was assayed in MeWo or MRC5 cells and was used at 0.04-0.1 pfu/cell. […]” for “reported.”

[3] = target: T1, Human cytomegalovirus DNA polymerase (Human cytomegalovirus, UniProt P08546); assay: HCMV polymerase assay (AlphaLISA, IC50); format: biochemical; details: polymerase assay of Example 190
T1 construct: made in house; host or cells: SF21 insect cells (baculovirus vector)
Procedure: (§4) Human cytomegalovirus and varicella zoster virus DNA polymerases were expressed via baculovirus vector in SF21 cells and purified. Heterodimeric nucleic acid substrate used in the herpesvirus polymerase reactions was generated by annealing a 59-mer template to a 17-mer digoxigenin-labeled primer. Polymerase (HCMV final concentration of 0.2 nM; VZV final concentration of 0.4 nM) was combined with an inhibitor compound or DMSO in assay buffer (10 mM HEPES, pH 7.5, 25 mM KCl, 25 mM NaCl, 5 mM MgCl2, 5% glycerol, 0.67 mg/ml bovine serum albuminutes, and 1 mM tris(2-carboxyethyl)phosphine), and this mixture was pre-incubated for 30 minutes at room temperature in 384-well microtiter plates. The polymerization reaction was initiated by the addition of template/primer substrate (final concentration: 1.6 nM), and dNTPs (final concentration: 24 nM dCTP, 24 nMdGTP, 16 nM dATP, 16 nM dTTP, and 0.8 nM biotin-dUTP). After 60 minutes incubation at 37° C., reactions were terminated with quench buffer (25 mM HEPES pH 7.5, 100 mM NaCl, 0.25% Tween-20, 12 mM EDTA, and 1 mg/ml bovine serum albumin). Incorporation of biotinylated UTP was detected with 2.5-5 ug/ml anti-DIG AlphaLISA acceptor beads and 5-10 ug/ml streptavidin AlphaLISA donor beads (Perkin Elmer). Compound effects were normalized to the window defined by the controls (DMSO only and pre-quenched wells), and were fit using a 4-parameter algorithm to report an IC50.

[4] = tested on: HCMV Strain AD169 in MRC-5 cells; assay: Viral qPCR assay HCMV (V0/V1, V2/V3), EC50; format: cell-based
Procedure: as §1, §2, §3
as §2, with “gene” for “gene and of the cellular control, PPIA (Thermo Fisher Assay ID=Hs04194521_s1),”, “in” for “in separate”, “Compound effects on viral” for “Viral”, “number” for “numbers were normalized by cellular control copy number, and compound effects”, “reported. • HCMV: Strain AD169 Street was assayed in MRC-5 cells and was used at 0.05-0.1 pfu/cell. The assays were performed in either growth media or in the same media with 50% fetal bovine serum. Primer-probe set was Thermo Fisher Assay ID=AIFATFK. • VZV: Strain Street was maintained as an infected cell stock in MRC-5 cells. It was assayed in MeWo or MRC5 cells and was used at 0.04-0.1 pfu/cell. […]” for “reported.”

[5] = target: T2, varicella zoster virus DNA polymerase (Varicella-zoster virus, UniProt P09252); assay: VZV polymerase assay (AlphaLISA, IC50); format: biochemical; details: polymerase assay of Example 190
T2 construct: made in house; host or cells: SF21 insect cells (baculovirus vector)
Procedure: as §4

[6] = Human alphaherpesvirus 3, MRC5, MRC5 cells, 10%, read-out: VZV Cell (EC50) MRC5 10%
[7] = Human betaherpesvirus 5, AD169, MRC5, viral qPCR assay of Example 191, read-out: HCMV Cell (EC50)
[8] = Human alphaherpesvirus 3, MeWo, MEWO cells, 10%, read-out: VZV Cell (EC50) MEWO 10%

T2 sequence (P09252 whole entry): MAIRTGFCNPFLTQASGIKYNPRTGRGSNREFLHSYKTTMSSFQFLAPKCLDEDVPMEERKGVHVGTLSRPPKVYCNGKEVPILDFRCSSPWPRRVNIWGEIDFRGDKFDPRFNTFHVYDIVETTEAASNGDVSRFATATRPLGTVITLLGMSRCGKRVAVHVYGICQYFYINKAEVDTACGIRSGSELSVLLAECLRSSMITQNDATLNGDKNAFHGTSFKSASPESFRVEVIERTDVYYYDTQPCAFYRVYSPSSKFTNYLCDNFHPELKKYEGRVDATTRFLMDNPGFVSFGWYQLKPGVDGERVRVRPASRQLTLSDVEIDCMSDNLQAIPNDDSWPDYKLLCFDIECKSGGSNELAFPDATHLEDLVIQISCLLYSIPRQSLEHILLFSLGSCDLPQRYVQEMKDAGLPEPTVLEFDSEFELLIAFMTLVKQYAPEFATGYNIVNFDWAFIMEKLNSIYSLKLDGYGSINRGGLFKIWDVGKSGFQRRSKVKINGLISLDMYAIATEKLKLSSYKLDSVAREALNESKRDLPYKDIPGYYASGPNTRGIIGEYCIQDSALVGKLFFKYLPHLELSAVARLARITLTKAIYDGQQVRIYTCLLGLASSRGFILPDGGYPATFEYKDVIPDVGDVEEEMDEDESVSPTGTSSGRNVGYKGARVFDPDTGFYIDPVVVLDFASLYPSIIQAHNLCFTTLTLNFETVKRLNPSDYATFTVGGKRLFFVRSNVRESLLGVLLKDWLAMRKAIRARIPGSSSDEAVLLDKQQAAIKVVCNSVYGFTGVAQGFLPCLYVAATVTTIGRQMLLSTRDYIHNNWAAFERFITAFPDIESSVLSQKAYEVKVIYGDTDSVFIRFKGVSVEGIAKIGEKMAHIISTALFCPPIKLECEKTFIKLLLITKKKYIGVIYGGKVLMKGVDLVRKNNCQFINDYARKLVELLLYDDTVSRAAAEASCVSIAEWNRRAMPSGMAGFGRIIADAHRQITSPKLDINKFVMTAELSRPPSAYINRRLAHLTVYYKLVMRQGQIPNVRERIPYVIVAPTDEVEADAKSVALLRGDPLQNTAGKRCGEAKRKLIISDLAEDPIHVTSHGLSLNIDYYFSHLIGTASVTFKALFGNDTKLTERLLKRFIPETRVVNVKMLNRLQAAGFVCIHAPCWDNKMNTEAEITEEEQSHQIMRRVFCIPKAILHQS
T1 sequence (P08546 whole entry): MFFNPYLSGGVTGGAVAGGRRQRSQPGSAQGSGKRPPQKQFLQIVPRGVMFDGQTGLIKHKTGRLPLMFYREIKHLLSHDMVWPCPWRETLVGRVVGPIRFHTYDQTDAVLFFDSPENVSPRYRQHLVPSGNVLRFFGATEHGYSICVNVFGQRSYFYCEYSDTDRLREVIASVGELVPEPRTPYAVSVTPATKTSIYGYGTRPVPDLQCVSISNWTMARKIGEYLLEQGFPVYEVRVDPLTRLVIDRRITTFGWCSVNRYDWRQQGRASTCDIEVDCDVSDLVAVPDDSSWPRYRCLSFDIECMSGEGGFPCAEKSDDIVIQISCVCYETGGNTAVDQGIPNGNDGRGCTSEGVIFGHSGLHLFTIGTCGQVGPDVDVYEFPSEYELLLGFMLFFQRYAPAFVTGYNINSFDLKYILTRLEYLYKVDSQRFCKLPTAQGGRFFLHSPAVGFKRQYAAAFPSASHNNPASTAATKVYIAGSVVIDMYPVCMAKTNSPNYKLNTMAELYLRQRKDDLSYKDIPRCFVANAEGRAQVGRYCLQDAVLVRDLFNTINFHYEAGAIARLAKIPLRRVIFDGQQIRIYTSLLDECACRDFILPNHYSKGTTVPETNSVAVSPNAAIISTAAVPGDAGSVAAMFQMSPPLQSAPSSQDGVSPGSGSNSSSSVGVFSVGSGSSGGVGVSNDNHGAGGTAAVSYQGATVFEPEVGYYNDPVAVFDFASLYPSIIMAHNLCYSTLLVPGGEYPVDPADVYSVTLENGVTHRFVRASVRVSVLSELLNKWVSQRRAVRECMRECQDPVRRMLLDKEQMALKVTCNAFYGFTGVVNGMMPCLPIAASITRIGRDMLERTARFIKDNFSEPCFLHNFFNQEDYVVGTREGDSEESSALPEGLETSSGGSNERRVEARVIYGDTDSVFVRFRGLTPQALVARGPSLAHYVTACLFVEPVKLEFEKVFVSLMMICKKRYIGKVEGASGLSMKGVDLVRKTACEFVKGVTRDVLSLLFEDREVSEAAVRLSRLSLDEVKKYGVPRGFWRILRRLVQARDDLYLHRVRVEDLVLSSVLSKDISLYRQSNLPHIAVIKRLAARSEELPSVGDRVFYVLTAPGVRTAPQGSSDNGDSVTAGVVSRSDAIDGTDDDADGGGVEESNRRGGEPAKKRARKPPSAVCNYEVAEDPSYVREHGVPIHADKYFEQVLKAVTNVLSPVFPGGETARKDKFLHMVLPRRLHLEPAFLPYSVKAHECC

SMILES | EC50 [1, 6] [nM] | EC50 ([2]; VERO cells, 10%) [nM] | IC50 [3] [nM] | EC50 [4, 7] [nM] | IC50 [5] [nM] | EC50 [1, 8] [nM] | EC50 ([1]; Human alphaherpesvirus 3, MeWo, read-out: VZV Cell (EC50) MEWO 10%) [nM] | EC50 [2] [nM] | EC50 ([4]; Human betaherpesvirus 5, AD169, MRC5, read-out: HCMV Cell (EC50)) [nM]
CC1(O)CCN(Cc2cnc(C(=O)NCc3ccc(Cl)cc3)cc2O[C@H]2CCN3C(=O)OC[C@@H]3C2)C1 (mixture of isomers) [Compound 134] | 3970 | 5850 | 124 | 1930 | 95.4 |  |  |  | 
CO[C@H]1CN(Cc2cnc(C(=O)NCc3ccc(Cl)cc3)cc2O[C@H]2CCN3C(=O)OC[C@@H]3C2)[C@@H]1C (mixture of isomers) [Compound 137] | 1420 | 602 | 35 | 575 | 36.7 |  |  |  | 
O=C(NCc1ccc(Cl)cc1)c1cc(O[C@H]2CCN3C(=O)OC[C@@H]3C2)c(CN2CCCC(O)C2)cn1 (mixture of isomers) [Compound 140] | 2560 | 4320 | 62 | 855 | 54.6 |  |  |  | 
O=C(NCc1ccc(Cl)cc1)c1cc(O[C@H]2CCN3C(=O)OC[C@@H]3C2)c(CN2CCC3OCCC32)cn1 (mixture of isomers) [Compound 142] | 490 | 453 | 17.8 | 243 | 12.9 |  |  |  | 
CC(C)CCn1cc(-c2cnc(C(=O)NCc3ccc(Cl)cc3)cc2O[C@H]2CCN3C(=O)OC[C@@H]3C2)cn1 (racemic) [Compound 9] |  | 1130 | 147 | 582 | 114 | 859 |  |  | 
CN(C)CCn1cc(-c2cnc(C(=O)NCc3ccc(Cl)cc3)cc2O[C@H]2CCN3C(=O)OC[C@@H]3C2)cn1 (racemic) [Compound 10] |  | 1360 | 80.1 | 178 | 41.7 | 375 |  |  | 
CC(C)Cn1cc(-c2cnc(C(=O)NCc3ccc(Cl)cc3)cc2O[C@H]2CCN3C(=O)OC[C@@H]3C2)cn1 (racemic) [Compound 11] |  | 813 | 70.5 | 685 | 51.2 | 712 |  |  | 
CC(C)(C)n1cc(-c2cnc(C(=O)NCc3ccc(Cl)cc3)cc2O[C@H]2CCN3C(=O)OC[C@@H]3C2)cn1 (racemic) [Compound 12] |  | 882 | 70.5 | 1160 | 69.6 | 977 |  |  | 
CCCn1cc(-c2cnc(C(=O)NCc3ccc(Cl)cc3)cc2O[C@H]2CCN3C(=O)OC[C@@H]3C2)cn1 (racemic) [Compound 13] |  | 388 | 50.9 | 363 | 38 | 601 |  |  | 
CCn1cc(-c2cnc(C(=O)NCc3ccc(Cl)cc3)cc2O[C@H]2CCN3C(=O)OC[C@@H]3C2)cn1 (racemic) [Compound 16] |  | 200 | 20.8 | 188 | 11.2 | 165 |  |  | 
Cn1cc(-c2cnc(C(=O)NCc3ccc(C#N)cc3)cc2O[C@H]2CCN3C(=O)OC[C@@H]3C2)cn1 (racemic) [Compound 95] |  | 1920 | 38.8 | 181 | 23.9 | 241 |  |  | 
Cn1cc(-c2cnc(C(=O)NCc3ccc(Cl)cc3)cc2O[C@H]2CCN3C(=O)COC[C@@H]3C2)cn1 (racemic) [Compound 157] |  |  | 150 |  | 70.8 |  | 852 | 222 | 901
N#Cc1cnc(C(=O)NCc2ccc(Cl)cc2)cc1O[C@H]1CCN2C(=O)CC[C@@H]2C1 (racemic) [Compound 158] |  | 473 | 67.9 | 1040 | 40.7 | 574 |  |  | 
O=C(NCc1ccc(Cl)cc1)c1cc(O[C@H]2CCN3C(=O)NC[C@@H]3C2)c(-c2cnn(C(F)F)c2)cn1 (racemic) [Compound 163] |  | 762 | 203 | 2730 | 105 | 588 |  |  | 
COC/C=C/c1cnc(C(=O)NCc2ccc(Cl)cc2)cc1OC1CCN(C(C)=O)CC1 [Compound 74] |  | 280 | 83 | 1440 | 35 |  |  |  | 
CC(=O)N1CCC(Oc2cc(C(=O)NCc3ccc(Cl)cc3)ncc2C#Cc2cc(C)ccn2)CC1 [Compound 76] |  | 624 | 209 | 1230 | 165 |  |  |  | 
O=C(NCc1ccc(Cl)cc1)c1cc(O[C@H]2CCN3C(=O)OC[C@@H]3C2)c(CO)cn1 [Compound 98] |  | 1520 | 45.6 | 509 | 27.9 |  |  |  | 
Cc1ncc(-c2cc(O[C@H]3CCN4C(=O)OC[C@@H]4C3)cc(C(=O)NCc3ccc(Cl)cc3)n2)s1 [Compound 102] |  | 427 | 199 | 8400 | 117 |  |  |  | 
Cc1cnc(-c2cnc(C(=O)NCc3ccc(Cl)cc3)cc2OC(C)C)s1 [Compound 103] |  | 3000 | 2310 | 19400 | 956 |  |  |  | 
O=C(NCc1ccc(Cl)cc1)c1cc(O[C@H]2CCN3C(=O)OC[C@@H]3C2)c(O)cn1 [Compound 146] |  | 6220 | 20.1 | 1140 | 8.04 |  |  |  | 
O=C(NCc1ccc(Cl)cc1)c1cc(O[C@H]2CCN3C(=O)OC[C@@H]3C2)cc(CO)n1 [Compound 152] |  | 10700 | 201 | 1890 | 134 |  |  |  | 
Cc1cnc(C(=O)NCc2ccc(Cl)cc2)cc1O[C@H]1CCN2C(=O)CC[C@@H]2C1 [Compound 169] |  | 594 | 46.7 | 1490 | 5.45 |  |  |  | 
